The structures appear in SMILES notation.

`Cc1cc(=O)c2[nH]nc(-c3ccc(Cl)cc3)c2[nH]1` gave a melting point of 324 to 327 °C. In turn, `CC(C)(C)NC(=O)Oc1ccc(-c2nn(C3CCCC3)c3c(F)cccc23)cc1` displayed a melting point of 157 °C.

In the case of `O=C(CC1c2ccccc2Sc2ccccc21)Nc1ccc(C(=O)O)cc1`, the melting point was 265 to 266 °C. Then `N=C(N)NC(=O)c1nc(F)c(N)nc1N`, with 233 °C. In turn, `COC1=CC(=O)C(Cc2ncn(C(c3ccccc3)(c3ccccc3)c3ccccc3)c2C)CC1` (centres undefined) came in with a melting point of 145 to 148 °C. Then `O=C(O)CC1(C(=O)O)CCc2cc3ccccc3n2C1` (centres undefined), with 185 to 188 °C; and `Cc1cccc(C(N)c2ccc(OCCOc3ccc(C(N)c4cccc(C)c4)cc3)cc2)c1` (centres undefined), with 113 to 115 °C; and `CCCCc1c(C(=O)c2ccc(O)cc2)[nH]c2ccc([N+](=O)[O-])cc12`, with 181 °C.

As for `COc1ccc(C2=NNC(=O)[C@H]3CCCC[C@@H]23)cc1OC` (relative stereo), the melting point was in the range of 143 to 146 °C. Under `COc1cc([N+](=O)[O-])ccc1COP(N)(=O)N(CCCl)CCCl` (centres undefined) stands 102 to 104 °C; under `Nc1ccccc1C1=NN(c2ccc(Cl)cc2)C(=O)C1`, 199 to 201 °C; under `N#Cc1ccc(Nc2nc(Oc3c(Br)cc(CO)cc3Br)ccc2[N+](=O)[O-])cc1`, 209 to 213 °C. Under `C#CC[C@@H](NC(=O)OC(C)(C)C)c1nc2cc(Cl)ccc2c(=O)n1Nc1ccccc1` stands 155 to 157 °C. Under `N#CC(=NO)C(=O)NC(=O)NCCCCCC(N)=O` stands 187 to 189 °C; under `NS(=O)(=O)c1ccc2nc(C(F)(F)F)[nH]c(=O)c2c1`, 311 to 314 °C; under `CC(=O)OC1CSC(Oc2cncc(-c3ccncc3Cl)c2)C(OC(C)=O)C1OC(C)=O` (centres undefined), 175 °C. `CN(C)CCOc1ccc2c(c1)[nH]c(=O)c1c3ccccc3oc21` returned a melting point of 213 to 217 °C. As to `O=c1c2c(CCc3ccncc3)n[nH]c2c2cccnc2n1-c1ccccc1`, the melting point lay within 267 to 269 °C. Under `Cc1ccc(S(=O)(=O)n2ccc3cc(-c4ccccc4)cnc32)cc1` stands 151 to 152 °C. Then `O=C(CCCCC1CCN(Cc2ccccc2)CC1)c1ccc(F)cc1`, with 67 to 68 °C; and `Cc1ccc(S(=O)(=O)Nc2ccc(C(=O)CN3CCN(c4ccncc4)CC3)cc2)cc1`, with 168 to 170 °C. On to `CCC(=O)OC(C#N)C(C#N)c1cccc(OC)c1` (centres undefined), for which the melting point worked out at 73 °C. Under `N#Cc1nn(-c2c(Cl)cc(C(F)(F)F)cc2Cl)cc1I` stands 83 to 84 °C. Then `CC(=O)NC1=NN(c2ccc(F)cc2)C(C)C1` (centres undefined), with 136 to 138 °C; and `CN1C(=O)CC2(CC(=O)N(Cc3ccccc3)C2)C1=O` (centres undefined), with 157 to 158 °C. In turn, `Cn1cc(Oc2cc(Cl)ccc2Cl)c(=O)c(-c2cccc(C(F)(F)F)c2)c1` yielded a melting point of 162 to 164 °C. Under `CC12CCC3c4ccc(C(=O)O)cc4CCC3C1CCC2C(=O)c1ccc(-c2ccccc2)cc1` (centres undefined) stands 268 to 270 °C. Molecule `O[C@@H]1C=CC=C(Cl)[C@@H]1O` (relative stereo) yielded a melting point of 95 to 96 °C.

For the molecule `C=CCOc1ccccc1-c1ncc(C(N)=O)c(=O)[nH]1`, the melting point was in the range of 202 to 204 °C. On to `COC(=O)CCCCCCc1ncsc1C(=O)O`, for which the melting point fell in the range of 113 to 114 °C. As for `O=Cc1cc(-n2cnnn2)cc2ccoc12`, the melting point lay within 174 to 175 °C. Under `CCN1CCC(=O)N(c2c(C)cccc2C)C1=S` stands 124 to 126 °C.

`COc1ccc2nccc(C(=O)CC[C@@H]3CCN(CC#Cc4cc(F)cc(F)c4F)C[C@@H]3C(=O)O)c2c1` yielded a melting point of 70 °C. Then `Cc1nn(C)c(Oc2ccc([N+](=O)[O-])cc2[N+](=O)[O-])c1C(=O)c1ccc(Cl)cc1Cl`, with 190 to 192 °C; and `CCCCc1nc(C)c(CCC(=S)N(CC)CC)c(=O)n1Cc1ccc(-c2ccccc2-c2nnn[nH]2)cc1`, with 77.8 to 81.1 °C; and `CC(C)C(=O)Oc1ccc2c(c1)CCC1C2CCC2(C)C1CC(O[Si](C)(C)C(C)(C)C)C2OC(=O)C(C)C` (centres undefined), with 114 °C. As to `CCOC(=O)c1cn(-c2nc(N)c(Cl)cc2F)c2c(Cl)c(F)c(F)cc2c1=O`, the melting point was in the range of 186 to 189 °C. As to `N#CCCNC1(CC2CCCCC2)C(=O)Nc2ccc(Cl)cc21` (centres undefined), the melting point is 208 °C. In turn, `CCOC(=O)c1cc2c(cn1)[nH]c1ccc(Br)cc12` displayed a melting point of 308 to 313 °C. Under `COc1ccc2c(c1)NC1(CCN(C(C)=O)CC1)c1cccn1-2` stands 211 to 213 °C.

With `c1ccc(CCN2CCN(c3n[nH]c4c3CCCc3ccccc3-4)CC2)cc1`, the melting point was in the range of 147 to 148 °C. Under `O=C1OCCC1Oc1ccc(-c2ccccc2)cc1[N+](=O)[O-]` (centres undefined) stands 117 to 119 °C. Under `CC=CC1=NC(=Cc2cccs2)C(=O)O1` stands 174 to 176 °C; under `CC1(CCc2ccc(O)c(C(C)(C)C)c2)NC(=O)NC1=O` (centres undefined), 246 °C. In the case of `O=[N+]([O-])c1ccc2c(c1)nc(/C=C/c1ccccc1)n2-c1ccccn1`, the melting point was in the range of 200 to 202 °C. Under `N#Cc1oc2cc(Cl)ccc2c1O` stands 205 °C.

Molecule `O=C(Cn1c(-c2ccc(Cl)cc2)nc2cccnc21)NC1=NCCS1` came in with a melting point of 227 to 229 °C. Then `O=C(Nn1cnnc1)C1=NN(c2ccc(Cl)cc2Cl)C(c2ccc(Cl)cc2)C1` (centres undefined), with 134 to 138 °C; and `COc1cc(OC)c(CN2CCc3cc(OCc4ccccc4)c(OC)cc3C2)c(OC)c1`, with 129 to 131 °C. Under `CC(C)(C)[Si](C)(C)OCCCC(=O)c1cc(-c2ccc(S(C)(=O)=O)cc2)n(C2CCCCC2)n1` stands 131 to 133 °C; under `O=CNc1ncc(C#Cc2ccc(Cl)cc2)c(Sc2ccc(O)cc2)n1`, 261 to 262 °C. Under `COC(=O)C1=C(C)CN(c2ccccc2)C1=O` stands 143 to 145 °C; under `COc1ccc2ccc(O)c(Cl)c2c1`, 76 to 78 °C. Take `COC(=O)c1ccc(-c2nnc(CSCCOc3ccc(Cl)cc3Cl)o2)cc1`: the melting point fell in the range of 148 to 152 °C.

`CC(C)N1CC(c2nnc(Cc3ccc(F)cc3)o2)=C(O)C1=O`: the melting point fell in the range of 204 to 206 °C.

Molecule `COc1cc(C)c(C=CC(C)=CC=CC(C)=CC(=O)n2ccnc2)c(C)c1C` yielded a melting point of 184 to 185 °C. Then `Nc1ccc(C(=O)O)c([N+](=O)[O-])c1`, with 230 °C; and `COCOC1=C(C(=O)OC)CC(C#N)(c2ccc(OC)c(OCC3CC3)c2)CC1` (centres undefined), with 98 to 99 °C; and `COC(=O)c1ccc2ccc(OC(=S)N(C)C)cc2c1`, with 124 to 126 °C.

As to `CCOC(=O)Nc1cccc2c1CN(C)CC2c1ccc(Cl)cc1` (centres undefined), the melting point is 155 °C. Under `CCC1c2cccn2-c2ccc(F)cc2N1S(=O)(=O)c1ccc(OC)c(C)c1` (centres undefined) stands 164 to 166 °C. In the case of `ClC(Cl)(Cl)C1Oc2ccc(C=NNc3ccccc3)cc2C(C(Cl)(Cl)Cl)O1` (centres undefined), the melting point was in the range of 191 to 192 °C.

As for `CCN(CC)CCNC(=O)c1cc2cc(I)ccc2[nH]1`, the melting point was in the range of 208 to 210 °C. Then `OCCN1CCn2c1nc1ccccc12`, with 158 to 160 °C; and `CC(C)(C)OC(=O)NCCC[C@H](NC(=O)OC(C)(C)C)C(=O)OC(C)(C)C`, with 80 to 82 °C; and `CCOC(=O)C1(C(=O)OCC)CCC2(c3cc(OC)c(OC)cc3CCN2C(C)=O)C(C2c3cc(OC)c(OC)cc3CCN2C)C1` (centres undefined), with 166 to 168 °C. Under `CCOC(=O)C(=O)Nc1ccc2c(=O)n3c(nc2c1)C(=Cc1ccccc1)CC3` stands 248 to 250 °C; under `COc1ccccc1Cc1cccc(-c2ncc3c(n2)CC(C)(C)CC3)n1`, 251 to 252 °C. Then `CC1(C)C(c2ccncc2)=Nc2ccc(-c3ccc(=O)[nH]n3)cc21`, with 305 to 307 °C; and `c1cc(Cc2nnn[nH]2)cc(OCc2ncc3ccccc3n2)c1`, with 129 to 131 °C. `O=[N+]([O-])c1cc(Cl)c2c(c1)C(F)(C(F)(F)F)C(F)(F)O2` (centres undefined): the melting point was in the range of 46 to 47 °C.

Turning to `Nc1cnc2cc(Cl)ccc2c1Nc1ccc(F)cc1`, the melting point is 198 to 200 °C. Regarding `CCN(C(C)=O)c1cccc(-c2ccnc3c(C(=O)c4ccccc4)cnn23)c1`, the melting point lay in the range of 158 to 160 °C. `CC(=O)Nc1ncc(CCc2ccc(NC(NC(=O)OC(C)(C)C)NC(=O)OC(C)(C)C)cc2)s1` gave a melting point of 203 to 205 °C. Then `CSc1cc(C(=O)O)ccc1C`, with 175 °C; and `Cc1ccc(-c2cc(CN3C(=O)c4ccccc4C3=O)c(=O)n(CC(C)C)n2)cc1`, with 222 to 224 °C. Then `NS(=O)(=O)OCCOc1cccc(-n2ccnc2)c1`, with 149 to 150 °C; and `O=C1Nc2ccc(Cl)cc2C12OCCCO2`, with 184 to 185 °C. Then `Cc1ccc(CN2CCC(O)CC2)cc1`, with 72 to 74 °C. As for `CCOC(=O)C1C=Nc2c(ccc3ncccc23)N1O` (centres undefined), the melting point was in the range of 223 to 225 °C. `COC(=O)c1cccc(-c2nc(COc3ccc(CON4CC(C=O)=CN4c4ccccc4)cc3OC)c(C)o2)c1` displayed a melting point of 164 to 165 °C. In turn, `CCOc1ccc([N+](=O)[O-])c(NN2CCN(C)CC2)c1` displayed a melting point of 145 °C. `Cn1c(-c2ccccc2)cc2onc(-c3ccccc3)c2c1=O`: the melting point fell in the range of 145 to 148 °C. As for `Cc1csc2nc3ccccc3c(=O)n12`, the melting point was found to be 180 °C. Under `COC(=O)c1snc(-c2ccc([N+](=O)[O-])cc2)c1C(=O)OC` stands 142 to 143 °C; under `Cc1ncc(Cn2c(CC3CCN(Cc4ccccc4)CC3)nc3ccccc32)o1`, 109 °C; under `NC(=O)c1c(F)ccc(F)c1N`, 121 to 123 °C. In the case of `C#CCN1CCCc2ccc(OC(=O)Nc3ccccc3C)cc21`, the melting point turned out to be 96 °C. Under `CCCc1ccc2nc(C(F)(F)F)c(S(=O)(=O)N=CN(C)C)n2n1` stands 219 to 220 °C.
